In series [1] the test system is EC9706 and TE10 oesophageal cancer cells. The series can be described thus: Wound healing assay. To be noted: within 24 h. The class given is cell-based, human. The protocol:
Oesophageal cancer cells were seeded into 6-well plates (5×10^5 cells/well) and then linearly scratched with a 10-μL pipette tip. After treatment for 24 h with different concentrations of CAR, cell migration was observed using an inverted microscope.

The subject of series [2] is PI3K/AKT signalling pathway in EC9706 cells. The series can be described thus: Western blot, PI3K/AKT signalling pathway. To be noted: EC9706 cells, with increasing CAR concentrations. The class given is cell-based, human. The protocol:
(§1) Oesophageal cancer cells were inoculated into a 6-well plate (5×10^5 cells/well). Cells were treated with different concentrations of CAR and then incubated for an additional 48 h. The cells were lysed using radio-immunoprecipitation assay (RIPA) buffer. The protein concentration was determined using a BCA kit. Proteins were separated by 8-12% sodium dodecyl sulfate-polyacrylamide gel electrophoresis (SDS-PAGE) and then transferred to a polyvinylidene fluoride (PVDF) membrane. The membrane was blocked with 5% nonfat milk for 1 h and then incubated with primary antibodies at 4 °C overnight. The membrane was then incubated with secondary antibodies for 1 h at room temperature. Finally, the membrane was imaged using a chemiluminescence imaging analyser. The greyscale value of each target protein band was analysed using the software provided with the analyser.

The test system of series [3] is PCNA, p-PI3K, p-AKT, Bcl2, vimentin. The series can be described thus: Immunohistochemistry of xenograft tumour tissue. It is filed as in vivo, nude mice. To be noted: with increasing CAR concentrations.
Experimental: A suspension of EC9706 cells (2×10^7 cells/ml) was injected into the middle of and posterior to the armpit of 4- to 6-week-old male nude mice. One week after inoculation, a soybean-sized subcutaneous mass appeared in the armpits of the mice. Then, different doses of CAR (5, 15, or 25 mg/kg) or sodium carboxymethyl cellulose (CMC), which served as a control, were administered by gavage once every three days. The body weights of the mice and tumour size were measured at the same time. Mice were euthanized 26 days after drug administration. Immunohistochemistry (IHC) was used to stain the tumours, and stomach tissue was stained with haematoxylin-eosin (HE). Tumour tissues were fixed with 4% paraformaldehyde and embedded in paraffin. Paraffin-embedded tissue blocks were cut into slices with a thickness of 3-5 mm. Tumour sections were immunohistochemically stained with PCNA (1:100), Bcl-2 (1:100), vimentin (1:100), phosphorylated Akt (1:100), and phosphorylated PI3K (1:100) antibodies according to the steps of the immunohistochemistry kit. For HE staining, tissues were sectioned after deparaffinization, stained with haematoxylin and eosin, and mounted on slides with neutral gum.
A short description of series [4]: Body weight of xenograft mice. The following applies: 5, 15 or 25 mg/kg by gavage, compared with control group. The class given is in vivo, nude mice. How it is done: (§2) A suspension of EC9706 cells (2×10^7 cells/ml) was injected into the middle of and posterior to the armpit of 4- to 6-week-old male nude mice. One week after inoculation, a soybean-sized subcutaneous mass appeared in the armpits of the mice. Then, different doses of CAR (5, 15, or 25 mg/kg) or sodium carboxymethyl cellulose (CMC), which served as a control, were administered by gavage once every three days. The body weights of the mice and tumour size were measured at the same time. Mice were euthanized 26 days after drug administration. Immunohistochemistry (IHC) was used to stain the tumours, and stomach tissue was stained with haematoxylin-eosin (HE).

Series [5] relates to E-cadherin, N-cadherin, vimentin, Snail, MMP2, MMP7, MMP9 in EC9706 cells. The series can be described thus: Western blot, EMT-related marker proteins and MMPs. It is filed as cell-based, human. How it is done:
as §1

Series [6] has as its system normal gastric epithelial cells (GES-1). The series can be described thus: MTT assay, IC50 in normal cells. It is filed as cell-based, human. The following applies: GES-1, 24 h and 48 h. How it is done: (§3) EC9706 and TE10 oesophageal cancer cells in the logarithmic growth phase were harvested and inoculated into 96-well plates at a density of 3000 cells/well. The cells were cultured in an incubator for 12 h and then treated with different concentrations of CAR and DMSO. The NC group was also set up. After incubation for 24 h or 48 h, 10 µL of MTT solution (5 mg/ml) was added to each well. The supernatant was aspirated, and 100 µL of DMSO was added to each well. The absorbance at a wavelength of 490 nm was measured using a microplate reader.
(§4) Supplementary Figure 1 (A -D) EC9706 and TE10 cells were treated with different concentrations of CAR or DMSO, and cell viability and the IC50 at 24 h and 48 h were examined by MTT assay. (E-H) HET-1A and GES-1 cells were treated with different […]
(§5) examined by MTT assay. (I-J) EC9706 cells were incubated with CAR or the caspase inhibitor Z-VAD- FMK or co-incubated, and mitochondrial apoptosis pathway- related proteins were detected by Western blot. […]
(§6) reverse the expression of Bcl2, Bax, Bad, caspase- 3, and cleaved caspase- 3. (K and L) The apoptosis of EC9706 cells after applying the caspase inhibitor Z-VAD- FMK was detected by […]
(§7) (1 picture or pasted object on this page, not shown here)

The test system of series [7] is oesophageal cancer cell lines EC9706 and TE10. The series can be described thus: Colony formation assay. The class given is cell-based, human. To be noted: two weeks culture. The protocol: Oesophageal cancer cells were inoculated into 6-well plates at a density of 8×10^2 cells/well and treated with different concentrations of CAR. The cells were continuously cultured for two weeks until colonies visible to the naked eye had formed. Then, the supernatant was discarded, and crystal violet staining solution was added for 10 min. The cells were dried and photographed, and the colony formation rate was calculated.

Series [8] deals with EC9706 and TE10 cells. The series can be described thus: Transwell migration assay. The class given is cell-based, human. The following applies: 48 h, compared with control group. How it is done: A total of 100 μL of Matrigel was placed in the upper chamber of a Transwell system and incubated at 37 °C for 2 h to form a white membrane visible to the naked eye. Cells were resuspended in serum-free medium and adjusted to a concentration of 3×10^4 cells/well. Medium containing 10% FBS was added into the lower chamber, and CAR was added based on a concentration gradient. Next, the cells were incubated for 48 h and then stained with crystal violet for 10 min. Then, an inverted microscope was used to observe the cells; five fields were randomly selected to observe and count the cells. To assess cell migration, all the above steps were repeated, but Matrigel was not added to the upper chamber.

For series [9], the system named is PCNA in EC9706 cells. The series can be described thus: Western blot, proliferation marker. To be noted: 48 h. The class given is cell-based, human. How it is done: as §1
Series [10] deals with EC9706 and TE10 oesophageal cancer cells. The series can be described thus: Hoechst 33258 staining, apoptosis. The class given is cell-based, human. The following applies: 48 h, compared with control group. The protocol:
Cells were seeded into 24-well plates (3×10^4 cells/well). The cells were treated with different concentrations of CAR and then incubated for 48 h, followed by fixation with 4% paraformaldehyde for 30 min and one wash with PBS. The cells were stained with Hoechst 33258 (50 ng/ml) for 30 min. Apoptotic cells were observed using a fluorescence microscope (apoptotic cells were characterized by dense chromatin), and five randomly selected fields were used for cell counting.

Series [11] is described as follows: Serum ALT, AST and CR levels. The class given is in vivo, nude mice. To be noted: mean±SD (n=3). How it is done:
as §2

Series [12] has as its system Bad, Bax, Bcl-2, PARP, caspase-3 in EC9706 cells. The series can be described thus: Western blot, apoptosis-related proteins. It is filed as cell-based, human. To be noted: 48 h. The protocol: as §1
Series [13] has as its system human normal oesophageal cells (HET-1A). The series can be described thus: MTT assay, IC50 in normal cells. It is filed as cell-based. To be noted: 24 h and 48 h. How it is done:
as §3, §4, §5, §6, §7

Setting [14] is: 5 mg/kg by gavage once every three days.
[15] abbreviates: 15 mg/kg by gavage once every three days.
The mark [16] stands for this setting: 25 mg/kg by gavage once every three days.

As to `COc1cc(O)cc(O)c1C(=O)/C=C/c1ccccc1` [CAR, Cardamonin], the healing rate result in series [1] was “gradually decreased with increases in the CAR concentration”. In [2], the “protein levels of p-PI3K and p-AKT” value is recorded as “decreased significantly”. Also, in series [3], the “expression of PCNA, p-PI3K, p-AKT, Bcl2 and vimentin in tumour” value is “the expression levels of PCNA, p-PI3K, p-AKT, Bcl2, and vimentin were downregulated”. Also, the weight of mice entry in series [4] is listed as “did not significantly change”. In [5], the E-cadherin expression result is on record as “upregulated the expression of E-cadherin”; the “MMP2, MMP7 and MMP9 expression” value was “significantly reduced the expression of MMP2, MMP7, and MMP9”; the “N-cadherin, vimentin and Snail expression” value is “significantly downregulated the expression of N-cadherin and vimentin as well as the EMT transcription factor Snail”. The “IC50 in normal cells compared with oesophageal cancer cells” value in [6] is “higher IC50 values”. For the same compound, the colony formation result in [7] is “significant inhibitory effect on the colony formation of oesophageal cancer cells in a concentration-dependent manner”. In [8], the cell migration entry is recorded as “significantly inhibited oesophageal cancer cell migration”. Also, the PCNA expression result in series [9] is recorded as “significantly inhibited PCNA expression”. Besides, the “number of apoptotic cells” value in [10] is “gradually increased with increasing drug concentrations”. In [11] (setting [14]), this compound had an ALT of 25.97±1.19 U/L, an AST of 57.56±2.19 U/L and a CR of 51.41 ± 4.33 µmol/L. In series [11] (setting [15]), this compound yielded an ALT of 23.50±2.88 U/L, an AST of 55.38±3.26 U/L and a CR of 49.61 ± 6.54 µmol/L. Besides, in series [11] (setting [16]), the ALT amounted to 21.04±2.52 U/L, the AST was 57.20±4.16 U/L and the CR was 53.34 ± 7.72 µmol/L. Besides, in series [12], the “expression of anti-apoptosis-related proteins” value is “downregulated the expression level of the anti-apoptosis-related proteins Bcl-2, PARP, and caspase-3”; the “expression of pro-apoptosis-related proteins” value was “upregulated the expression levels of the pro-apoptosis-related proteins Bad, Bax, cleaved PARP, and cleaved caspase-3”. In addition, the “IC50 in normal cells compared with oesophageal cancer cells” value in series [13] was “higher IC50 values”.
